Literature values, collected in patent US9730971B2 (priority 2008, dated 2017).

Assays:
Details in all cases: reported in Non Patent Literature 2
[1] = test system: Gram-positive bacteria such as Staphylococcos aureus, Streptococcus mutans, Bacillus subtilis, and Bacillus ammoniagenes
[2] = test system: fungi such as Saccharomyces cerevisiae, Candida utilis, and Penichillium chrysogenum
[3] = test system: Gram-negative bacteria such as Escherichia coli, Enterobacter aerogenes, and Pseudomonas aeruginosa

With `CCCCCCCCCCCCCCCc1cccc(O)c1C(=O)O` [anacardic acid] as the molecule, how does the antimicrobial action [1] read?
Its antimicrobial action is “antimicrobial action”.

What about the antimicrobial action [2] of the same molecule?
Its antimicrobial action is “no antimicrobial action”.

And the antimicrobial action [3]?
The antimicrobial action was “no antimicrobial action”.
